Results on eight compounds are retold here after patent publication US12337000B2, “Therapeutic modulators of the reverse mode of ATP synthase” (priority 2017, dated 2025).

“Also recorded” adds a separate entry of the source. Like-named read-outs stand apart in the source and are kept apart here.

Data set [1] has as its system 59 different cancer cell lines (NCI-60). Kind of data set: NCI-60 five-dose in vitro assay. It counts as cell-based. The conditions noted are these: Homo sapiens, read-out: mean GI50 of all 59 cell lines. The text has this: Results are from the NCI-60 five-dose in vitro assay at the Developmental Therapeutics Program (DTP), at the National Cancer Institute (NCI, Bethesda, MD, USA). […] These graphs are as outputted by the NCI but changed from colour to black and white. On the y-axis of each is the aforementioned “Growth Percent” parameter used by NCI, which is growth relative to the no-compound control, and relative to the time zero number of cells.

The target of another data set is T1, F1F0 ATP synthesis (Bos taurus, UniProt P00829+P19483).
T1 construct: are from sub-mitochondrial (SMP) studies in [5-8]; from tissue; host or cells: sub-mitochondrial particles (SMPs)
To be noted: SMP assays, [5-8]; cited from earlier work.

In data set [2] the test system is 59 cancer cell lines (NCI-60). Kind of data set: NCI-60 one-dose in vitro assay. The conditions noted are these: for inhibition at 100 µM / inhibition at 10 µM: Homo sapiens; for inhibition at 10 µM: 48 hours, read-out: mean cancer growth inhibition, across all 59 cancer cell lines; for inhibition at 10 µM / anti-cancer activity (in words): 10 μM. It counts as cell-based, human. An excerpt:
FIGS. 1, 2, 3, 4, 5, 6, 7, 8 show results from the NCI-60 one-dose in vitro assay at the Developmental Therapeutics Program (DTP), at the National Cancer Institute (NCI, Bethesda, MD, USA). Its protocol is well known to those of the art, and it tests the effect, if any, of a test compound on the growth/survivability of a cancer cell line as compared to the no compound control. […] However, a constant is that there is always representative cell lines from leukemia, melanoma and cancers of the lung, colon, brain, ovary, breast, prostate and kidney. In a one-dose NCI compound test report, NCI report a number for each cell line, which they call “Growth Percent”, which is its growth relative to the no-compound control, and relative to the time zero number of cells. This reported parameter allows detection of both growth inhibition (values between 0 and 100) and lethality (values less than 0). For example, an NCI “Growth Percent” value of 100 means no growth inhibition. Value of 40 means 60% growth inhibition. Value of 0 means no net growth over the course of the experiment. Value of −40 means 60% lethality. Value of −100 means all cells are dead. I don't present NCI one-dose data in this original format. Instead, if the NCI “Growth Percent” value for a cell is positive, it is manipulated: [100 minus this original NCI-60 “Growth Percent” data point], to yield the percentage “Growth Inhibition”. If the original NCI “Growth Percent” value for a cell is negative, it is made positive to be the percentage of original cancer cells (at time zero) killed: “Percentage Killed” {and in these cases, of course, all growth has been inhibited, so percentage “Growth Inhibition” is then specified to be 100% for this cancer cell line}. In my one-dose figures, “Growth Inhibition” (0-100%) is presented on the x-axis and, if applicable, “Percentage Killed” (0-100%) further along on the x-axis. The latter is applicable when there is not just cancer growth inhibition but a reduction in the number of cancer cells from the start time i.e. when the compound is not merely slowing cancer growth, but is actively reducing the number of cancer cells from the starting number. In cases where there is only growth inhibition, only “Growth inhibition” is presented on the x-axis.
NCI-60 tests are performed at a controlled temperature of 37° C..
To perform the anti-cancer testing reported: BMS-199264 hydrochloride was purchased from Sigma-Aldrich. BTB06584 was purchased from AdooQ Bioscience, Irvine, CA, USA. Compounds 19a (separated into 6a and 6b stereoisomers) and 31 were synthesized by reaction schemes disclosed herein. Almitrine dimesylate was purchased from Ak Scientific, Palo Alto, CA, USA.

In the next data set the test system is ex vivo rat heart. The conditions noted are these: 10 μM [11]; cited from earlier work.
Data set [3] has as its target forward mode of ATP synthase (Homo sapiens, UniProt P06576+P25705+P48047). To be noted: [P4]; cited from earlier work.
Data set [4] concerns the target reverse mode of ATP synthase (Homo sapiens, UniProt P06576+P25705+P48047). The conditions noted are these: [P4]; cited from earlier work.
For another data set, the target named is T2, F1F0 ATP hydrolase (Bos taurus, UniProt P00829+P19483).
T2 construct: from tissue; host or cells: sub-mitochondrial particles (SMPs)
The conditions noted are these: cited from earlier work; for IC50: [5-6], read-out: IC50 reverse mode of ATP synthase.

Data set [5] can be described thus: In vivo mouse study of 6a and 6b, rectal temperature and survival at 22° C. room temperature. Further details: species or system Mus Musculus C57BL/6. To be noted: for effect on rectal temperature (in words): in vivo, iv. The method, then: FIG. 15. In vivo study of compounds 6a and 6b, conducted at 22° C. room temperature. METHODOLOGY: 4 mice were used and in the presented table “Day” refers to the number of days since the 1st drug/vehicle dose on Day 1. Some experimental details: intravenous (IV) administration (tail vein), dosing volume=10 μl/g, solution (not suspension), sterilised (0.22 μm filter) vortexed vehicle=12.5% solutol, 12.5% ethanol, 75% water, IV solutions freshly prepared before injection except on days 22 and 39 when solutions prepared on previous dosing days were used (sub-optimal), Female Mus Musculus C57BL/6 strain, 6-8 weeks old at study start, mice sourced from Shanghai Lingchang Bio-Technology Co. Ltd, mice were observed/quarantined for a few days after arrival and before dosing, ad libitum Co^60 irradiation sterilized dry granule food & reverse osmosis autoclaved water, corn cob bedding, polysulfone individually ventilated cage (IVC, containing up to 5 animals): 325 mm×210 mm×180 mm, 12 hour light/dark cycle, 40-70% humidity, 20-26° C. room temperature, StudyDirector™ software (Studylog Systems, Inc. CA, USA) used to allocate/randomize control/treatment groups, animals marked by ear coding (notch), care and use of animals in accordance with the regulations of the Association for Assessment and Accreditation of Laboratory Animal Care (AAALAC), when recording rectal temperature: care was taken to ensure constant depth of probe insertion across different recordings, time was afforded for rectal probe temperature to equilibrate with rectal temperature, and time was afforded between recordings for probe temperature to reset.

A short description of data set [6]: Enantiomeric excess (ee) stability experiments. It counts as physicochemical. To be noted: FIG. 16. The text has this:
FIG. 16. The enantiomeric excess (ee) of 6a and 6b is […] in presented ee stability experiments. […] This ee instability in biological media is an unexpected result. This finding is componentry to the invention of this disclosure, as are any modifications to the structure of 6a or 6b to slow their ee erosion due to epimerization/racemization. The ee instability is unexpected because it runs contrary to theory. The 2nd order rate constant (kgb) for general-base catalysed racemization can be predicted for 6a and 6b by theory from (and its supplementary information, all incorporated by reference). Joined to the stereogenic carbon of 6a and 6b there is a phenyl group, alkyl and a guanidine group: ΣΔΔG(R1,R2,R3)=[…]=−36.2 kcal/mol. The value for the guanidine group (19.1) is not from but from one of its authors, Dr. Andrew Leach, by personal communication, who sourced it by quantum mechanical calculation with the Gaussian 03 software package. The cross-conjugation correction was not applied in this case because Dr. Leach wrote “I would not expect guanidine to be a conjugating group”. log(kgb)=−0.11*ΣΔΔG(R1,R2,R3)−9.81, ∴Kgb=0.00000148593 M^−1s^−1. This is not particularly fast. Racemization might occur faster for 6a and 6b in cells than predicted by theory because their high lipophibicity concentrates them in biological membranes. […]

The subject of data set [7] is 59 cancer cell lines (NCI-60). The conditions noted are these: 10 μM, NCI-60 one-dose, NSC: 760347 in [16], cited from earlier work.
The conditions of data set [8]: mice, intraperitoneal injection (IP); cited from earlier work.
Data set [9] is described as follows: Human pharmacokinetics of oral almitrine dimesylate. The data set is classed as in vivo. The conditions noted are these: human, plasma; single 200 mg oral dose, humans [121]; read-out: mean cmax plasma concentration.
For data set [10] the following is noted: cited from earlier work.
For data set [11], the system named is 59 different cancer cell lines (NCI-60). To be noted: NCI-60 five-dose, from Table 1 of [30]; cited from earlier work.
For data set [12] the following is noted: 1.9 g/kg intraperitoneal, 24.5 to 25° C. ambient temperature [100]; cited from earlier work.
[13] abbreviates: read-out: median cancer growth inhibition.

For `CC1(C)Oc2ccc(S(=O)(=O)N3CCCCC3)cc2[C@@H](N(Cc2ncc[nH]2)c2ccc(Cl)cc2)[C@@H]1O` [BMS-199264], in [1], the GI50 (commonly the concentration giving 50% growth inhibition) was determined as 3.9 µM. Moreover, the EC50 on F1F0 ATP synthesis was 18 µM. For the same compound, the inhibition (commonly the relative decrease from the control value, in per cent) at 100 µM in data set [2] (read-out: Mean % cancer growth inhibition) is over 100%. Also, the “harm to normal cells (ex vivo rat heart)” value in the data set with ex vivo rat heart was “doesn't harm; also recorded: does not harm”.

As for `CN1C(=O)C(Cc2ccc3ccccc3c2)N=C(c2ccc(O)cc2)c2cc(Cl)ccc21` (stereo not shown) [Bz-423], the EC50 in data set [3] is 5.5 µM; in data set [4] it was 8.9 µM.

Consider `N#Cc1cccc(C(=O)/N=C(\Nc2ccc(Cl)cc2)N[C@@H](Cn2ccnc2)c2ccc(Cl)cc2Cl)c1` [Compound 6a], for which the GI50 in [1] was 0.666 µM. Further, the EC50 at F1F0 ATP hydrolase (SMP studies in [5-8], read-out: EC50 F1F0 ATP hydrolysis / hydrolase) is over 100 µM. The IC50 (in general, the concentration that inhibits the measured activity by half) on F1F0 ATP hydrolase was over 100 µM. Also, the inhibition at 10 µM in [2] was 57%. In addition, in data set [2] (setting [13]), the inhibition at 100 µM was over 79%. The LD50 (in general, the dose at which mortality reaches 50%) in data set [5] (female, C57BL/6, in vivo, mouse, IV) was over 40 mg/kg. Also, the “effect on rectal temperature (in words)” value in data set [5] (mouse) is “does not”. Besides, the “enantiomeric excess (ee) stability” value in [6] is listed as “stable”.

On to `N#Cc1cccc(C(=O)/N=C(\Nc2ccc(Cl)cc2)N[C@H](Cn2ccnc2)c2ccc(Cl)cc2Cl)c1` [Compound 6b], for which, in [1], the GI50 was 0.446 µM. In addition, the IC50 at F1F0 ATP hydrolase is 0.018 µM. The inhibition at 10 µM in [2] came out at 66%. The inhibition at 100 µM in data set [2] (setting [13]) was over 79%. Moreover, in data set [5] (20 mg/kg IV), the “time to death after IV injection” value is about 210 min. Moreover, in [5] (40 mg/kg IV, found dead the next day), the “survival time after IV injection” value was over 6 h. Moreover, in data set [5] (mouse), the “effect on rectal temperature (in words)” value is given as “potently reduces rectal temperature”. Besides, in data set [6], the “enantiomeric excess (ee) stability” value was “stable”.

On to `CCN1CC(CCN2CCOCC2)C(c2ccccc2)(c2ccccc2)C1=O` (stereo not shown) [Doxapram], for which the “median % cancer growth inhibition” value in data set [7] was −2.3%. Further, the “mean % cancer growth inhibition” value in data set [7] (negative = growth promotion) was −3.7%.

Turning to `C=CCNc1nc(NCC=C)nc(N2CCN(C(c3ccc(F)cc3)c3ccc(F)cc3)CC2)n1.CS(=O)(=O)O` [almitrine dimesylate, 6-[4-[bis(4-fluorophenyl)methyl]piperazin-1-yl]-2-N,4-N-bis(prop-2-enyl)-1,3,5-triazine-2,4-diamine methanesulfonic acid], the LD50 in data set [8] is listed as 370 mg/kg. In addition, the Cmax in data set [9] is 600 nM. In addition, the entries for the “anti-cancer activity (in words)” value in data set [2] and in [2] (listed as almitrine dismesylate) were “Anti-cancer activity” and “greater anti-cancer activity than carboplatin”, respectively. Also, in data set [10] (24 hours after 200 mg oral dose [121]), the “plasma [almitrine]” value was about 50 ng/mL. The oral bioavailability in [10] (humans [121]) is listed as 70%. Moreover, the “mean cmax plasma concentration” value in [10] (single 150 mg oral dose, humans [123]) is 379 ng/mL; in [10] (single 200 mg oral dose, humans [121]), 286 ng/mL.

Consider `N.N.[Cl][Pt][Cl]` [cisplatin], for which, in data set [11], the concentration for 50% growth inhibition (GI50) is 1.4 µM.

As for `CCO` [ethanol], in data set [12], the “reduction of body temperature” value was 1.6 °C.
